# Experimental data reported in patent publication US11478552B2, “Hybrid carriers for nucleic acid cargo” (CureVac AG, priority 2016, dated 2022).
# Experiments:
# [1] = test system: differentiated Sol8 cells; test: Transfection of Sol8 muscle cells with GpLuc mRNA, luminescence of supernatant (Example 2); format: cell-based, C3H mouse; conditions: small amounts of lipidoid added to PB83, GpLuc mRNA (SEQ ID NO: 12), 24 h post transfection
# Protocol: Sol8 is a myogenic cell line isolated by Daubas et al. from primary cultures of soleus muscle taken from the leg of a normal C3H mouse. A volume of 0.2 mL Sol8 cells (20.000 cells) were seeded in 96 well glass bottom plates (Softwell Hydrogel coated with collagen, elasticity E=12 kPa) on day 1. After removing the medium from each well, 100 μL DMEM medium (with 2% horse serum) was added to each well. Afterwards, on day 2, Sol8 cells were transfected with 100 μL transfection mix (in triplicates) of polymer-lipidoid complexes prepared according to Example 1) and respective controls (in triplicates), and cells were incubated at 37° C. and 5% CO2 for 120 minutes. After incubation, 150 μL medium was exchanged with 150 μL fresh DMEM medium supplemented with 10% fetal calf serum. Twenty-four hours post transfection, i.e. on day 3, 10 μL of supernatant of each well was extracted and used for further luminescence analysis, which was performed as described below. […]
# For luminescence analysis, a volume of 10 μL supernatant was transferred to a 96 well plate for GpLuc measurement. […] A volume of 100 μL coelenterazine working solution was used as a substrate for GpLuc and measured after 5 seconds in a commercially available microplate reader.
# HepG2 cells = test: Transfection of HepG2 cells with GpLuc mRNA, luminescence of supernatant (Example 3); format: cell-based; conditions: small amounts of lipidoid added to PB83, GpLuc mRNA, 24 h post transfection
# Protocol: For luminescence analysis, a volume of 10 μL supernatant was transferred to a 96 well plate for GpLuc measurement. Then, coelenterazine working solution (100 μM) was prepared (1 mL coelenterazine stock solution (4.72 mM in EtOH) in 49 mL phosphate buffered saline supplemented with 5 mM NaCl, pH 7.2). A volume of 100 μL coelenterazine working solution was used as a substrate for GpLuc and measured after 5 seconds in a commercially available microplate reader.
# The experiments were conducted as described in the previous Example, except that HepG2 cells were transfected instead of Sol8 cells. A volume of 0.2 mL HepG2 cells (10.000 cells) were seeded in a 96 well tissue culture plate. After removing the medium from each well, 100 μL RPMI 1640 medium (with 1% Penicillin and 1% Streptomycin, 1% L-Glutamin) was added to each well. Afterwards, HepG2 cells were transfected with 100 μL transfection mix (in triplicates) of polymer-lipidoid mRNA complexes and respective controls (in triplicates), and cells were incubated at 37° C. and 5% CO2 for 90 minutes. After incubation, 150 μL medium was exchanged with 150 μL fresh RPMI 1640 medium supplemented with 10% fetal calf serum. Twenty-four hours post transfection, 10 μL of supernatant of each well was extracted and used for further luminescence analysis.
Structure (SMILES),transfection efficiency (GpLuc luminescence) [1],transfection efficiency (GpLuc luminescence) (HepG2 cells)
CCCCCCCCCCC(O)CNCCN(CCNCC(O)CCCCCCCCCC)CCNCC(O)CCCCCCCCCC (centres unmarked) [3-C12-OH],profound increase of transfection efficiency,profound increase of transfection efficiency
CCCCCCCCCCCCNCCN(CCNCCCCCCCCCCCC)CCNCCCCCCCCCCCC [3-C12],profound increase of transfection efficiency,profound increase of transfection efficiency
CCCCCCCCCCC(O)C[N+](C)(C)CCN(CC[N+](C)(C)CC(O)CCCCCCCCCC)CC[N+](C)(C)CC(O)CCCCCCCCCC (centres unmarked) [3-C12-OH-cat],–,profound increase of transfection efficiency
